{
  "source": "patent US20060205826A1",
  "about": "“Method of using carotenoids in the prevention of cognitive decline and for other neuroprotection functions” (priority 2005, published 2006)",
  "test_system": "GPx activity",
  "assay": "GPx activity in eye and hippocampus homogenate of diabetic mice",
  "format": "in vivo",
  "procedure": "Male albino mice were used throughout the study, housed in a environmentally regulated room on a dark-light cycle of 12 hours with free access to food and water. Principles of laboratory animal care (NIH publication no. 85-23, revised 1985) were followed, as well as specific Spanish regulations. Animals were made diabetic with a single subcutaneous injection of 200 mg alloxan/kg body weight (66 mg/ml) in 0.1 M citrate buffer, pH 4.5, at day 0 of the experiment. Control mice were injected with the same volume of vehicle also at day 0 of the experiment. Mice were identified as diabetic on the basis of blood glucose levels (higher than 16 mM at least 4 days after alloxan treatment). Animals were divided into subgroups as required by the experiment (control, control+lutein, diabetic, diabetic+lutein, diabetic+insulin, diabetic+insulin+lutein). […] Insulin treated animals were injected daily with 500 mU/g body weight since day 4 until the end of the experiment. Mice were killed by cervical dislocation on day 14, and hippocampus and retina were removed and homogenized in pre-chilled 0.2 M potassium phosphate buffer, pH 7.0. These homogenates were used to assay protein, GPx activity and MDA and GSH concentrations. Samples were kept frozen (−80° C.) until biochemical assays were performed. Blood was taken from the tail vein daily to assay blood glucose levels. Glycated hemoglobin was determined in blood samples obtained by heart puncture immediately before killing the animals. GPx activity was assayed as reported by Lawrence et al. (1978) towards hydrogen peroxide. The disappearance of NADPH was followed spectrophotometrically at 340 nm. The reaction mixture consisted of 240 mU/ml of glutathione disulfide reductase, 1 mM GSH, 0.15 mM NADPH in 0.1 M potassium phosphate buffer, pH 7.0, containing 1 mM EDTA and 1 mM sodium azide; 50 μl sample were added to this mixture and allowed to equilibrate at 37° C. for 3 min. reaction was started by the addition of 1.5 mM hydrogen peroxide to adjust the final volume of the assay mixture to 1 ml.",
  "data": [
    {"smiles": "CC1=C[C@H](O)CC(C)(C)[C@H]1/C=C/C(C)=C/C=C/C(C)=C/C=C/C=C(C)/C=C/C=C(C)/C=C/C1=C(C)C[C@@H](O)CC1(C)C", "note": "[Lutein]", "values": [
      {"measurement": "retinal GPx activity", "setting": "eye homogenate without lens, lutein 100 mg/kg p.o. or insulin 500 mU/g s.c. on days 4-13", "result": "protected"},
      {"measurement": "GPx activity in hippocampus homogenate", "setting": "lutein 0.2 mg/kg p.o. or insulin 500 mU/g s.c. on days 4-13", "result": "restored"}
    ]}
  ]
}
